Data as given in patent publication US7572786B2, “Substituted 1-piperidin-3-yl-4-piperidin-4-yl-piperazine derivatives and their use as neurokinin antagonists” (Janssen Pharmaceutica, N.V., priority 2002, dated 2009).

Key:
Type in all cases: cell-based
NK3 = target: T1, NK3 (Homo sapiens, UniProt P29371); test: Signal transduction (ST), intracellular Ca++ (FLIPR), NK3; details: for IC50: read-out: pIC50 NK3 (converted)
T1 sequence (P29371 1-465): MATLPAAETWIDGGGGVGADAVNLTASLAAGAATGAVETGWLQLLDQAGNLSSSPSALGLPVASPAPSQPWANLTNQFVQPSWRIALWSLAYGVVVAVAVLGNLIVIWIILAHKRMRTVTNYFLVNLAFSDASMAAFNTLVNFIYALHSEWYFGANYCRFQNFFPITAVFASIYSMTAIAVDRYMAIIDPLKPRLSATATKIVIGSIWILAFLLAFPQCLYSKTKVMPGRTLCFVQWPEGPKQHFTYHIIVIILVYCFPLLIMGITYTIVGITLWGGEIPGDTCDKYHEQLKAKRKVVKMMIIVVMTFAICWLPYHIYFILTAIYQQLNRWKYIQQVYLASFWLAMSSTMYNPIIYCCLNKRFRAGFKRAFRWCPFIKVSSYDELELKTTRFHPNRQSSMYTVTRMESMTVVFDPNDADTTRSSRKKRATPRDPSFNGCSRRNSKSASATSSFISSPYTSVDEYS
Experimental: [The source words this procedure for another target and reports this target under the same test.] (§1) This test evaluates in vitro functional NK1 antagonistic activity. For the measurements of intracellular Ca^++ concentrations the cells were grown on 96-well (black wall/transparent bottom) plates from Costar for 2 days until they reached confluence. The cells were loaded with 2 μM Fluo3 in DMEM containing 0.1% BSA and 2.5 mM probenecid for 1 h at 37° C. […] The cells were preincubated with a concentration range of antagonists for 20 min at RT and Ca^++-signals after addition of the agonists were measured in a Fluorescence Image Plate Reader (FLIPR from Molecular Devices, Crawley, England). The peak of the Ca^++-transient was considered as the relevant signal and the mean values of corresponding wells were analysed as described below.
(§2) The sigmoidal dose response curves were analysed by computerised curve-fitting, using the GraphPad Program. […] For antagonist responses the IC50-value was calculated using non-linear regression.

NK2 = target: T2, NK2 (Homo sapiens, UniProt P21452); test: Signal transduction (ST), intracellular Ca++ (FLIPR), NK2; details: for IC50: read-out: pIC50 NK2 (converted)
T2 sequence (P21452 1-398): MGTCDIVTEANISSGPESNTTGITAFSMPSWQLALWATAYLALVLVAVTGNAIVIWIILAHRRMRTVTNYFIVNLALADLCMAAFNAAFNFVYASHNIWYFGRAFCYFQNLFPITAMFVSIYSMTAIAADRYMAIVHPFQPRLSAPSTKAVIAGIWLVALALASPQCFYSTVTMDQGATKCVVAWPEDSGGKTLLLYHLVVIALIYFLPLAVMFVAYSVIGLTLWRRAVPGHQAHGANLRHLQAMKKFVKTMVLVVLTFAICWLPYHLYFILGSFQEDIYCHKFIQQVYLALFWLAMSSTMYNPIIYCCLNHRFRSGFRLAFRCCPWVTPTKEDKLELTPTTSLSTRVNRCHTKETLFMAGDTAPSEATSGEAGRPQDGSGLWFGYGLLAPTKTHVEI
Experimental: [The source words this procedure for another target and reports this target under the same test.] as §1, §2

NK1 = NK1 (Homo sapiens, UniProt P25103); test: Signal transduction (ST), intracellular Ca++ (FLIPR), NK1 antagonism; details: for IC50: read-out: pIC50 NK1 (converted)
Chain of NK1 (P25103 whole entry): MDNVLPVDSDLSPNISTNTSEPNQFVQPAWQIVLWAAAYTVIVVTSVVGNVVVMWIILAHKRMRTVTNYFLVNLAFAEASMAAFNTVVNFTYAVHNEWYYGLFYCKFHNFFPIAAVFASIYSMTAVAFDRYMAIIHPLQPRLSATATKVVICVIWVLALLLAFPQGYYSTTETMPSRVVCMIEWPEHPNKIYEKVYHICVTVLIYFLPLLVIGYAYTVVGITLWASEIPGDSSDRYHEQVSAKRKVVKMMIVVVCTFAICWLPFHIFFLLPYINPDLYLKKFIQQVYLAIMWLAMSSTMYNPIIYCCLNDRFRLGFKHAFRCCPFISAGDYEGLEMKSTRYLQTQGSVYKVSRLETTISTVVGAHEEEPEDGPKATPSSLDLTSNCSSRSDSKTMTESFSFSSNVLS
Experimental: as §1, §2

SMILES	IC50 (NK3)	IC50 (NK2)	IC50 (NK1)	pIC50 NK3 (NK3)	pIC50 NK2 (NK2)	pIC50 NK1 (NK1)
O=C(c1ccccc1F)N1CCCC(N2CCN([C@H]3CCN(C(=O)c4cc(C(F)(F)F)cc(C(F)(F)F)c4)[C@H](Cc4ccccc4)C3)CC2)C1 (stereo partly shown) [Compound 9]	794 nM	2510 nM	15.8 nM			
O=C(c1ccccc1Cl)N1CCCC(N2CCN([C@H]3CCN(C(=O)c4cc(C(F)(F)F)cc(C(F)(F)F)c4)[C@H](Cc4ccccc4)C3)CC2)C1 (stereo partly shown) [Compound 10]	501 nM	3980 nM	25.1 nM			
Cc1ccccc1C(=O)N1CCCC(N2CCN([C@H]3CCN(C(=O)c4cc(C(F)(F)F)cc(C(F)(F)F)c4)[C@H](Cc4ccccc4)C3)CC2)C1 (stereo partly shown) [Compound 11]	1000 nM	3160 nM	20 nM			
O=C(C1CC1)N1CCCC(N2CCN([C@H]3CCN(C(=O)c4cc(C(F)(F)F)cc(C(F)(F)F)c4)[C@H](Cc4ccccc4)C3)CC2)C1 (stereo partly shown) [Compound 15]	158 nM	6310 nM	12.6 nM			
O=C(c1cccs1)N1CCCC(N2CCN([C@H]3CCN(C(=O)c4cc(C(F)(F)F)cc(C(F)(F)F)c4)[C@H](Cc4ccccc4)C3)CC2)C1 (stereo partly shown) [Compound 20]	251 nM	2000 nM	31.6 nM			
Cc1nnsc1C(=O)N1CCCC(N2CCN([C@H]3CCN(C(=O)c4cc(C(F)(F)F)cc(C(F)(F)F)c4)[C@H](Cc4ccccc4)C3)CC2)C1 (stereo partly shown) [Compound 22]	501 nM	2510 nM	10 nM			
O=C(c1cccnc1)N1CCCC(N2CCN([C@H]3CCN(C(=O)c4cc(C(F)(F)F)cc(C(F)(F)F)c4)[C@H](Cc4ccccc4)C3)CC2)C1 (stereo partly shown) [Compound 23]	2000 nM	3980 nM	20 nM			
O=C(c1cc(C(F)(F)F)cc(C(F)(F)F)c1)N1CC[C@H](N2CCN(C3CCCN(S(=O)(=O)c4cccs4)C3)CC2)C[C@H]1Cc1ccccc1 (stereo partly shown) [Compound 25]				7.1	6.4	7.8
O=C(c1cc(C(F)(F)F)cc(C(F)(F)F)c1)N1CC[C@H](N2CCN(C3CCCN(c4cnccn4)C3)CC2)C[C@H]1Cc1ccccc1 (stereo partly shown) [Compound 26]	794 nM	7940 nM	7.94 nM			
O=C(c1cc(C(F)(F)F)cc(C(F)(F)F)c1)N1CC[C@H](N2CCN(C3CCCN(S(=O)(=O)c4ccccc4)C3)CC2)C[C@H]1Cc1ccccc1 (stereo partly shown) [Compound 28]	158 nM	2000 nM	10 nM			
O=C(c1cc(C(F)(F)F)cc(C(F)(F)F)c1)N1CC[C@H](N2CCN(C3CCCN(S(=O)(=O)c4ccsc4)C3)CC2)C[C@H]1Cc1ccccc1 (stereo partly shown) [Compound 29]	316 nM	1260 nM	6.31 nM			
Cc1ccccc1S(=O)(=O)N1CCCC(N2CCN([C@H]3CCN(C(=O)c4cc(C(F)(F)F)cc(C(F)(F)F)c4)[C@H](Cc4ccccc4)C3)CC2)C1 (stereo partly shown) [Compound 30]	631 nM	631 nM	15.8 nM			
Cc1nc(S(=O)(=O)N2CCCC(N3CCN([C@H]4CCN(C(=O)c5cc(C(F)(F)F)cc(C(F)(F)F)c5)[C@H](Cc5ccccc5)C4)CC3)C2)cn1C (stereo partly shown) [Compound 32]	100 nM	631 nM	5.01 nM			
O=C(c1cc(C(F)(F)F)cc(C(F)(F)F)c1)N1CC[C@H](N2CCN(C3CCCN(S(=O)(=O)c4ccc(Cl)s4)C3)CC2)C[C@H]1Cc1ccccc1 (stereo partly shown) [Compound 36]				6.2	5.3	7.5
O=C(c1cc(C(F)(F)F)cc(C(F)(F)F)c1)N1CC[C@H](N2CCN(C3CCCN(S(=O)(=O)c4ccc(-c5cnco5)s4)C3)CC2)C[C@H]1Cc1ccccc1 (stereo partly shown) [Compound 37]	631 nM	2000 nM	12.6 nM			
Cc1nc(C)c(S(=O)(=O)N2CCCC(N3CCN([C@H]4CCN(C(=O)c5cc(C(F)(F)F)cc(C(F)(F)F)c5)[C@H](Cc5ccccc5)C4)CC3)C2)s1 (stereo partly shown) [Compound 38]	251 nM	200 nM	6.31 nM			
Cc1noc(C)c1S(=O)(=O)N1CCCC(N2CCN([C@H]3CCN(C(=O)c4cc(C(F)(F)F)cc(C(F)(F)F)c4)[C@H](Cc4ccccc4)C3)CC2)C1 (stereo partly shown) [Compound 39]	501 nM	631 nM	6.31 nM			

SMILES	IC50 (NK3)	IC50 (NK2)	IC50 (NK1)	pIC50 NK3 (NK3)	pIC50 NK2 (NK2)	pIC50 NK1 (NK1)
O=C(c1cc(C(F)(F)F)cc(C(F)(F)F)c1)N1CC[C@H](N2CCN(C3CCCN(S(=O)(=O)c4cc(Cl)sc4Cl)C3)CC2)C[C@H]1Cc1ccccc1 (stereo partly shown) [Compound 40]				6.6	5.1	7.6
O=C(C1CCCC1)N1CCCC(N2CCN(C3CCN(C(=O)c4cc(C(F)(F)F)cc(C(F)(F)F)c4)C(Cc4ccccc4)C3)CC2)C1 (stereo not shown) [Compound 41]	100 nM	3160 nM	7.94 nM			
O=C(Cc1cccs1)N1CCCC(N2CCN([C@H]3CCN(C(=O)c4cc(C(F)(F)F)cc(C(F)(F)F)c4)[C@H](Cc4ccccc4)C3)CC2)C1 (stereo partly shown) [Compound 43]	501 nM	2000 nM	10 nM			
O=C(c1cc(C(F)(F)F)cc(C(F)(F)F)c1)N1CC[C@H](N2CCN(C3CCCN(S(=O)(=O)c4ccc5nonc5c4)C3)CC2)C[C@H]1Cc1ccccc1 (stereo partly shown) [Compound 45]	398 nM	1580 nM	20 nM			
O=C(c1cc(C(F)(F)F)cc(C(F)(F)F)c1)N1CC[C@H](N2CCN(C3CCCN(S(=O)(=O)c4c(Cl)nc5sccn45)C3)CC2)C[C@H]1Cc1ccccc1 (stereo partly shown) [Compound 46]	794 nM	501 nM	15.8 nM			
COc1ccccc1C(=O)N1CCCC(N2CCN([C@H]3CCN(C(=O)c4cc(C(F)(F)F)cc(C(F)(F)F)c4)[C@H](Cc4ccccc4)C3)CC2)C1 (stereo partly shown) [Compound 47]	501 nM	5010 nM	15.8 nM			
CC(C(=O)N1CCCC(N2CCN([C@H]3CCN(C(=O)c4cc(C(F)(F)F)cc(C(F)(F)F)c4)[C@H](Cc4ccccc4)C3)CC2)C1)c1ccccc1 (stereo partly shown) [Compound 48]	631 nM	1000 nM	31.6 nM			
O=C(c1cc(C(F)(F)F)cc(C(F)(F)F)c1)N1CCC(N2CCN(C3CCCN(S(=O)(=O)Cc4ccccc4)C3)CC2)CC1Cc1ccccc1 (stereo not shown) [Compound 49]	316 nM	631 nM	15.8 nM			
O=C(c1cc(C(F)(F)F)cc(C(F)(F)F)c1)N1CC[C@H](N2CCN(C3CCCN(S(=O)(=O)c4ccccc4C(F)(F)F)C3)CC2)C[C@H]1Cc1ccccc1 (stereo partly shown) [Compound 50]	7940 nM	6310 nM	100 nM			
CC(C)(C)OC(=O)N1CCC[C@@H]1C(=O)N1CCCC(N2CCN([C@H]3CCN(C(=O)c4cc(C(F)(F)F)cc(C(F)(F)F)c4)[C@H](Cc4ccccc4)C3)CC2)C1 (stereo partly shown) [Compound 53]				7.3	5.7	8.3
CC(C)(C)OC(=O)N1CCCC1C(=O)N1CCCC(N2CCN(C3CCN(C(=O)c4cc(C(F)(F)F)cc(C(F)(F)F)c4)C(Cc4ccccc4)C3)CC2)C1 (stereo not shown) [Compound 54]	251 nM	2000 nM	5.01 nM			
O=C(C(O)c1ccccc1)N1CCCC(N2CCN([C@H]3CCN(C(=O)c4cc(C(F)(F)F)cc(C(F)(F)F)c4)[C@H](Cc4ccccc4)C3)CC2)C1 (stereo partly shown) [Compound 56]	2000 nM	1000 nM	7.94 nM			
N#Cc1cccc(C(=O)N2CCCC(N3CCN([C@H]4CCN(C(=O)c5cc(C(F)(F)F)cc(C(F)(F)F)c5)[C@H](Cc5ccccc5)C4)CC3)C2)c1 (stereo partly shown) [Compound 57]	794 nM	3160 nM	12.6 nM			
O=C(c1cc(C(F)(F)F)cc(C(F)(F)F)c1)N1CCC(N2CCN(C3CCCN(S(=O)(=O)c4cccs4)C3)CC2)CC1Cc1ccccc1 (stereo not shown) [Compound 59]	2000 nM	3160 nM	15.8 nM			
O=C(c1cc(C(F)(F)F)cc(C(F)(F)F)c1)N1CC[C@H](N2CCN(C3CCCN(S(=O)(=O)c4occc4COCc4ccccc4)C3)CC2)C[C@H]1Cc1ccccc1 (stereo partly shown) [Compound 90]					5.7	6.8
CC(C)N/C(=C\[N+](=O)[O-])N1CCCC(N2CCN(C3CCN(C(=O)c4cc(C(F)(F)F)cc(C(F)(F)F)c4)C(Cc4ccccc4)C3)CC2)C1 (stereo not shown) [Compound 103]		6310 nM	10 nM			
